Results: patent US20110311484A1, “STRAINS OF […] LEUKEMIA-RELATED VIRUS AND METHODS FOR DETECTION THEREOF” (Whittemore Peterson Institute for Neuro-Immune Disease, priority 2010, published 2011)

Test system: XMRV
Experiment: XMRV Env expression in PHA/IL-2 activated PBMC cultures, staining with SFFV env moAb
Assay type: cell-based
Details: PBMCs of XMRV-infected individuals, PHA/IL-2 activated for three days; inhibitor (50 nM AZT, FIG. 3) added prior to activation
Experimental: XMRV RNA could not always be detected in the PBMCs of subjects from which infectious virus had been isolated from plasma. […] We have observed that culturing these PBMCs under conditions that induce activation of T cells increases the frequency of XMRV detected by RT-PCR in the cells maintained in culture. […] To biologically increase the level of XMRV and increase the probability that XMRV sequences could be detected by PCR, PBMCs were cultured under conditions that activated T cells for 7-10 days, the RNA isolated, and nested RT-PCR analysis performed as described above.

Cc1cn([C@H]2C[C@H](N=[N+]=[N-])[C@@H](CO)O2)c(=O)[nH]c1=O [reverse transcriptase inhibitor, zidovudine]
XMRV expression, as measured by cell surface expression of Env: prevents the increase XMRV expression
